Laboratory results published in US8962641B2, “Pyrimidine-substituted pyrrolidine derivatives, pharmaceutical compositions and uses thereof” (Boehringer Ingelheim International GmbH, priority 2013, dated 2015).

Molecular target: human ACC2 (Homo sapiens (Human), UniProt O00763)
Test: ACC2 assay (spectrophotometric 384 well assay, NADH-linked kinetic method)
Format: biochemical
Conditions: hACC2 construct lacking 128 N-terminal amino acids; coupled lactate dehydrogenase/pyruvate kinase reaction, 340 nm, 25° C.
Experimental: Spectrophotometric 384 Well Assay
Malonyl CoA formation by acetyl CoA carboxylases is stoichometrically linked to the consumption of ATP. ACC2 activity is measured in a NADH-linked kinetic method measuring ADP generated during the ACC reaction using a coupled lactate dehydrogenase/pyruvate kinase reaction.
The protein is then expressed in insect cells using a baculoviral expression system. Protein purification is performed by anion exchange.
All compounds are dissolved in dimethyl sulfoxide (DMSO) to a concentration of 10 mM.
The enzymatic reaction is then started by addition of a mixture of NADH, acetyl Coenzyme A (both 200 μM f.c.) and ATP (500 uM f.c.). The decrease of the optical density (slope S) is then determined at 25° C. at a wavelength of 340 nm over 15 minutes in a spectrophotometric reader.
Each assay microtiter plate contains wells with vehicle instead of compound as controls for the non-inhibited enzyme (100% CTL; ‘HIGH’) and wells without acetyl-CoA as controls for non-specific NADH degradation (0% CTL; ‘LOW’).

human ACC2, sequence (O00763 129-2458): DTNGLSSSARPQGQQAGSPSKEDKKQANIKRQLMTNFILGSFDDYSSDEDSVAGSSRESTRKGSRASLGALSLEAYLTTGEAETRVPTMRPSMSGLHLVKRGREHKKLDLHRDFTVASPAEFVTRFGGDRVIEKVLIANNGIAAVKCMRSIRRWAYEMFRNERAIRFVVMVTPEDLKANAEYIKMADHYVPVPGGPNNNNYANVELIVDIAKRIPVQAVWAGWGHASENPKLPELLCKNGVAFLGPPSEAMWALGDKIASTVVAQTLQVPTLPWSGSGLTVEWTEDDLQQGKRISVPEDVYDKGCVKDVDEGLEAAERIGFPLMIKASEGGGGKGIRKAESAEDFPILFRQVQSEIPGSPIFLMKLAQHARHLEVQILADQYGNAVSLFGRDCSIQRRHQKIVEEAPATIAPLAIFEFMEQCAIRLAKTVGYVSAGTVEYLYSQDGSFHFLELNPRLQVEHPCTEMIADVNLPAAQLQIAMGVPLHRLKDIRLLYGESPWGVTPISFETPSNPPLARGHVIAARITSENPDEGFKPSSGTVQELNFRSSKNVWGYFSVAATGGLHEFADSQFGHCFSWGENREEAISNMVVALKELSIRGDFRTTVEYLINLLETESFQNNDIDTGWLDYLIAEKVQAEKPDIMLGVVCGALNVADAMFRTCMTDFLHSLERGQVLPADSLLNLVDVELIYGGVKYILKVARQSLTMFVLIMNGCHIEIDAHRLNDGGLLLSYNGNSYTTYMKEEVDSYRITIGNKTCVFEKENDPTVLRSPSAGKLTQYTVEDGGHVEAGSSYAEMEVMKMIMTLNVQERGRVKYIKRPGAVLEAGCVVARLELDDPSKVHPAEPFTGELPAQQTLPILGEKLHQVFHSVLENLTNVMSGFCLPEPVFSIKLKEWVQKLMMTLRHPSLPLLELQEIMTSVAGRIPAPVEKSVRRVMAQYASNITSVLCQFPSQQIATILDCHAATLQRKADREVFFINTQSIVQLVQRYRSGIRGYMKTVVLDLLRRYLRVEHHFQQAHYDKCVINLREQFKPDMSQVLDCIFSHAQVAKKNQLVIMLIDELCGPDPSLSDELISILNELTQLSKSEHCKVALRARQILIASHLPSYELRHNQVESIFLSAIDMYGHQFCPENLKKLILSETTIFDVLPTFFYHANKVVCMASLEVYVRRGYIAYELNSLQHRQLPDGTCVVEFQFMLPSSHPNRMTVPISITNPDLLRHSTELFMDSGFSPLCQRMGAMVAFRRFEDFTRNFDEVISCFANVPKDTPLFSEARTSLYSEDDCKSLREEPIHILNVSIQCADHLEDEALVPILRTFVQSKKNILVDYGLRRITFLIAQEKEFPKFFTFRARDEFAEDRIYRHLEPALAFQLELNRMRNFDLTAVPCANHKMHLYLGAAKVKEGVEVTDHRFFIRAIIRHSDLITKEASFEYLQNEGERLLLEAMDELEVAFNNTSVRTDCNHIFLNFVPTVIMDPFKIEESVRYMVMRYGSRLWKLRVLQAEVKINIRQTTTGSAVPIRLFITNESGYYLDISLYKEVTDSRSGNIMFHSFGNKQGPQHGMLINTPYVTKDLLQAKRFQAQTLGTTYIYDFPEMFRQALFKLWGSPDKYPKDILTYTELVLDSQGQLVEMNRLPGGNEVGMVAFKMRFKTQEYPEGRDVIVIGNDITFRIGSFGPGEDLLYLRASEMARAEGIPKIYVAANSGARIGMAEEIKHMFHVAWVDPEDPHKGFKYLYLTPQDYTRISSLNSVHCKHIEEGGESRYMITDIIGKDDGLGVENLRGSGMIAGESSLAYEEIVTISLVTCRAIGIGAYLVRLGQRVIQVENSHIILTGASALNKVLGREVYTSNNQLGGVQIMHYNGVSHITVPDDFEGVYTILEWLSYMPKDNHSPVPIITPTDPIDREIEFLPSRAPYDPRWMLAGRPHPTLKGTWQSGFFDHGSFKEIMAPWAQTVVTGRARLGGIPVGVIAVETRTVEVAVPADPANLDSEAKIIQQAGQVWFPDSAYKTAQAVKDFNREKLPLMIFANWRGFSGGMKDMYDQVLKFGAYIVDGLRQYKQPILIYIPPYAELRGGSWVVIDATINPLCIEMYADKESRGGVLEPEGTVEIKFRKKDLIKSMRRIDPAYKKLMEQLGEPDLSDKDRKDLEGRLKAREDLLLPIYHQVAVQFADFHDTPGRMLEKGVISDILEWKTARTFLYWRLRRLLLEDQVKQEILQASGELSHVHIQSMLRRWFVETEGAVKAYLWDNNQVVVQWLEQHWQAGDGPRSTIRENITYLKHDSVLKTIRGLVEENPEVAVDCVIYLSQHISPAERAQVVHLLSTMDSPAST

Compound	IC50
CC(=O)N[C@@H](C)c1ccc(O[C@@H]2CCN(c3cc(OCC(F)(F)F)ncn3)C2)cc1 [Example 7.9]	879 nM
CC(=O)N[C@@H](C)c1ccc(O[C@@H]2CCN(c3nc(OC4CCC4)ncc3F)C2)cc1 [Example 7.11]	368 nM
CCOc1ncc(F)c(N2CC[C@@H](Oc3ccc([C@H](C)NC(C)=O)cc3)C2)n1 [Example 7.12]	585 nM
CC(=O)N[C@@H](C)c1ccc(O[C@@H]2CCN(c3nc(OCC(C)C)ncc3F)C2)cc1 [Example 7.14]	780 nM
CC(=O)N[C@@H](C)c1ccc(O[C@@H]2CCN(c3nc(OCC(F)F)ncc3F)C2)cc1 [Example 7.15]	828 nM
CC(=O)N[C@@H](C)c1ccc(O[C@@H]2CCN(c3ccnc(OCC(C)C)n3)C2)cc1 [Example 7.17]	960 nM
CC(=O)N[C@@H](C)c1ccc(O[C@@H]2CCN(c3nc(OCC4(C)CC4)ncc3F)C2)cc1 [Example 7.18]	565 nM
CCCOc1ncnc(N2CC[C@@H](Oc3ccc([C@H](C)NC(C)=O)cc3)C2)c1F [Example 7.19]	65 nM
CC(=O)N[C@@H](C)c1ccc(O[C@@H]2CCN(c3ncnc(OCC4CC4)c3Cl)C2)cc1 [Example 7.20]	35 nM
CCCOc1ncnc(N2CC[C@@H](Oc3ccc([C@H](C)NC(C)=O)cc3)C2)c1Cl [Example 7.21]	45 nM
CCOc1ncnc(N2CC[C@@H](Oc3ccc([C@H](C)NC(C)=O)cc3)C2)c1Cl [Example 7.22]	140 nM
CCCOc1ncnc(N2CC[C@@H](Oc3ccc([C@H](C)NC(C)=O)cc3)C2)c1C [Example 7.23]	120 nM
CCOc1ncnc(N2CC[C@@H](Oc3ccc([C@H](C)NC(C)=O)cc3)C2)c1C [Example 7.24]	394 nM
CC(=O)N[C@@H](C)c1ccc(O[C@@H]2CCN(c3ncnc(OCC4CC4)c3C)C2)cc1 [Example 7.25]	67 nM
CCOc1ncnc(N2CC[C@@H](Oc3ccc([C@H](C)NC(C)=O)cc3)C2)c1F [Example 7.26]	148 nM
CC(=O)N[C@@H](C)c1ccc(O[C@@H]2CCN(c3ncnc(OC4CCC4)c3F)C2)cc1 [Example 7.27]	35 nM
CC(=O)N[C@@H](C)c1ccc(O[C@@H]2CCN(c3ncnc(OCC(C)C)c3F)C2)cc1 [Example 7.28]	69 nM
CC(=O)N[C@@H](C)c1ccc(O[C@@H]2CCN(c3ncnc(OCC4(C#N)CC4)c3F)C2)cc1 [Example 7.29]	175 nM
CC(=O)N[C@@H](C)c1ccc(O[C@@H]2CCN(c3ncnc(OCC(F)F)c3F)C2)cc1 [Example 7.30]	153 nM
CC(=O)N[C@@H](C)c1ccc(O[C@@H]2CCN(c3ncnc(OCCCF)c3F)C2)cc1 [Example 7.31]	49 nM
CC(=O)N[C@@H](C)c1ccc(O[C@@H]2CCN(c3ncnc(OCC(C)(C)O)c3F)C2)cc1 [Example 7.32]	145 nM
CC(=O)N[C@@H](C)c1ccc(O[C@@H]2CCN(c3ncnc(OCC(C)(F)F)c3F)C2)cc1 [Example 7.33]	86 nM
CC(=O)N[C@@H](C)c1ccc(O[C@@H]2CCN(c3ncnc(OCC4CC4(F)F)c3F)C2)cc1 (some centres unmarked) [Example 7.34]	63 nM
C[C@H](NC(=O)OCC1CC1)c1ccc(O[C@@H]2CCN(c3ncnc(OCC4CC4)c3F)C2)cc1 [Example 7.36]	2900 nM
CC(=O)N[C@@H](C)c1ccc(O[C@@H]2CCN(c3ncnc(OC4CCOCC4)c3F)C2)cc1 [Example 7.37]	250 nM
CC(=O)N[C@@H](C)c1ccc(O[C@@H]2CCN(c3ncnc(O[C@@H]4CCOC4)c3F)C2)cc1 [Example 7.38]	196 nM
CC(=O)N[C@@H](C)c1ccc(O[C@@H]2CCN(c3ncnc(OCC(C)(F)F)c3Cl)C2)cc1 [Example 7.39]	60 nM

Compound	IC50
CC(=O)N[C@@H](C)c1ccc(O[C@@H]2CCN(c3ncnc(OCC4CC4(F)F)c3Cl)C2)cc1 (some centres unmarked) [Example 7.40]	42 nM
CC(=O)N[C@@H](C)c1ccc(O[C@@H]2CCN(c3ncnc(OC4CCC4)c3Cl)C2)cc1 [Example 7.41]	39 nM
CC(=O)N[C@@H](C)c1ccc(O[C@@H]2CCN(c3ncnc(OCC(C)(C)O)c3Cl)C2)cc1 [Example 7.42]	81 nM
CCOc1ncnc(N2CC[C@@H](Oc3ccc([C@H](C)NC(C)=O)cc3)C2)c1OC [Example 7.44]	277 nM
CC(=O)N[C@@H](C)c1ccc(O[C@@H]2CCN(c3ncnc(OC[C@H]4CC4(F)F)c3F)C2)cc1 [Example 7.45]	99 nM
COC(C)(C)COc1ncnc(N2CC[C@@H](Oc3ccc([C@H](C)NC(C)=O)cc3)C2)c1F [Example 7.46]	595 nM
CC(=O)N[C@@H](C)c1ccc(O[C@@H]2CCN(c3ncnc(OC4CCCC4)c3F)C2)cc1 [Example 7.47]	58 nM
CC(=O)N[C@@H](C)c1ccc(O[C@@H]2CCN(c3ncnc(OC[C@@H]4CC4(F)F)c3F)C2)cc1 [Example 7.48]	87 nM
COc1c(OCC(C)(F)F)ncnc1N1CC[C@@H](Oc2ccc([C@H](C)NC(C)=O)cc2)C1 [Example 7.49]	117 nM
COc1c(OC(C)C)ncnc1N1CC[C@@H](Oc2ccc([C@H](C)NC(C)=O)cc2)C1 [Example 7.50]	97 nM
CCCOc1ncnc(N2CC[C@@H](Oc3ccc([C@H](C)NC(C)=O)cc3)C2)c1OC [Example 7.51]	392 nM
CC(=O)N[C@@H](C)c1ccc(O[C@@H]2CCN(c3ncnc(OC(C)C)c3Cl)C2)cc1 [Example 7.52]	105 nM
CC(=O)N[C@@H](C)c1ccc(O[C@@H]2CCN(c3ncnc(OC4CCCC4)c3Cl)C2)cc1 [Example 7.53]	32 nM
COc1c(OCC(F)F)ncnc1N1CC[C@@H](Oc2ccc([C@H](C)NC(C)=O)cc2)C1 [Example 7.54]	162 nM
COc1c(OC2CCCC2)ncnc1N1CC[C@@H](Oc2ccc([C@H](C)NC(C)=O)cc2)C1 [Example 7.55]	69 nM
COc1c(OCC2CC2(F)F)ncnc1N1CC[C@@H](Oc2ccc([C@H](C)NC(C)=O)cc2)C1 (some centres unmarked) [Example 7.56]	75 nM
CC(=O)N[C@@H](C)c1ccc(O[C@@H]2CCN(c3ncnc(OCC(F)F)c3Cl)C2)cc1 [Example 7.57]	109 nM
COc1c(OCC(C)(C)O)ncnc1N1CC[C@@H](Oc2ccc([C@H](C)NC(C)=O)cc2)C1 [Example 7.58]	355 nM
COc1c(OCC2CC2)ncnc1N1CC[C@@H](Oc2ccc([C@H](C)NC(C)=O)cc2)C1 [Example 7.59]	39 nM
COC(C)(C)COc1ncnc(N2CC[C@@H](Oc3ccc([C@H](C)NC(C)=O)cc3)C2)c1Cl [Example 7.60]	145 nM
COc1c(OCC(C)(C)OC)ncnc1N1CC[C@@H](Oc2ccc([C@H](C)NC(C)=O)cc2)C1 [Example 7.61]	233 nM
CCC(=O)Nc1nc(C)c(C(=O)N[C@@H](C)c2ccc(O[C@@H]3CCN(c4ncnc(OCC5CC5)c4OC)C3)cc2)s1 [Example 7.63]	112 nM
CC(=O)N[C@@H](C)c1ccc(O[C@@H]2CCN(c3ncnc(OC4CCOCC4)c3Cl)C2)cc1 [Example 7.64]	128 nM
CCC(=O)Nc1nc(C)c(C(=O)N[C@@H](C)c2ccc(O[C@@H]3CCN(c4ncnc(OCC(C)(C)O)c4F)C3)cc2)s1 [Example 7.65]	650 nM
CCC(=O)Nc1nc(C)c(C(=O)N[C@@H](C)c2ccc(O[C@@H]3CCN(c4ncnc(OCC(C)(C)O)c4Cl)C3)cc2)s1 [Example 7.66]	723 nM
CC(=O)N[C@@H](C)c1ccc(O[C@@H]2CCN(c3nc(OCC4CC4(F)F)ncc3F)C2)cc1 (some centres unmarked) [Example 7.67]	789 nM
